According to ChEMBL document CHEMBL1201862, “PubChem BioAssay data set” (2004):
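Dose response: 5 concentrations. Exposure: 48 h. Format: 96-well plates. Endpoint: linear interpolation; highest concentration if not reached. The concentration for 50% growth inhibition is given as GI50.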 The source made the active and inactive calls. Cut-off read from the data, not from the text of the source: active = GI50 up to about 1.1 µM and inactive = higher.

How the values were obtained:
Assay in all cases: inhibition of tumour cell growth, NCI panel, 48 h
SK-OV-3 = tested on: SK-OV-3
T47D = tested on: T47D
HCT-116 = tested on: HCT-116
NCI-H226 = tested on: NCI-H226
OVCAR-4 = tested on: OVCAR-4
MDA-MB-231 = tested on: MDA-MB-231
OVCAR-5 = tested on: OVCAR-5
EKVX = tested on: EKVX
SNB-75 = tested on: SNB-75
LOX IMVI = tested on: LOX IMVI
RPMI-8226 = tested on: RPMI-8226
OVCAR-3 = tested on: OVCAR-3
SF-295 = tested on: SF-295
KM12 = tested on: KM12
MDA-MB-435 = tested on: MDA-MB-435
SR = tested on: SR
IGROV-1 = tested on: IGROV-1
CCRF-CEM = tested on: CCRF-CEM
MCF7 = tested on: MCF7
SF-539 = tested on: SF-539
Hs-578T = tested on: Hs-578T
UACC-62 = tested on: UACC-62
A549 = tested on: A549
COLO 205 = tested on: COLO 205
NCI/ADR-RES = tested on: NCI/ADR-RES
OVCAR-8 = tested on: OVCAR-8
HCT-15 = tested on: HCT-15
CAKI-1 = tested on: CAKI-1
BT-549 = tested on: BT-549
UO-31 = tested on: UO-31
MDA-N = tested on: MDA-N
SK-MEL-5 = tested on: SK-MEL-5
SNB-19 = tested on: SNB-19
HOP-62 = tested on: HOP-62
DU-145 = tested on: DU-145
NCI-H23 = tested on: NCI-H23
PC-3 = tested on: PC-3
NCI-H522 = tested on: NCI-H522
K562 = tested on: K562
SF-268 = tested on: SF-268
U-251 = tested on: U-251
SW-620 = tested on: SW-620
M14 = tested on: M14
A498 = tested on: A498
SN12C = tested on: SN12C
SK-MEL-28 = tested on: SK-MEL-28
TK-10 = tested on: TK-10
MOLT-4 = tested on: MOLT-4
HT-29 = tested on: HT-29
UACC-257 = tested on: UACC-257
HCC 2998 = tested on: HCC 2998
SK-MEL-2 = tested on: SK-MEL-2
786-0 = tested on: 786-0
ACHN = tested on: ACHN
Malme-3M = tested on: Malme-3M
HOP-92 = tested on: HOP-92
RXF 393 = tested on: RXF 393
NCI-H460 = tested on: NCI-H460

Measured: GI50

CC1(C)OC(=C(C#N)C#N)C(C#N)=C1/C=C/c1ccncc1
2030 nM: HCT-15
inactive: SK-OV-3 4660 nM | T47D 2480 nM | HCT-116 1910 nM | NCI-H226 2430 nM | OVCAR-4 2960 nM | MDA-MB-231 2160 nM | OVCAR-5 2890 nM | EKVX 2320 nM | SNB-75 3050 nM | LOX IMVI 1860 nM | RPMI-8226 1650 nM | OVCAR-3 1840 nM | SF-295 2240 nM | KM12 3800 nM | MDA-MB-435 3450 nM | SR 2410 nM | IGROV-1 2170 nM | MCF7 2040 nM | SF-539 1800 nM | Hs-578T 3330 nM | UACC-62 1950 nM | A549 11400 nM | COLO 205 1880 nM | NCI/ADR-RES 2030 nM | OVCAR-8 1750 nM | CAKI-1 1970 nM | BT-549 1650 nM | UO-31 3240 nM | MDA-N 2580 nM | SK-MEL-5 4370 nM | SNB-19 2590 nM | HOP-62 1660 nM | DU-145 2530 nM | NCI-H23 2350 nM | PC-3 2290 nM | NCI-H522 2050 nM | K562 3140 nM | SF-268 2210 nM | U-251 1850 nM | SW-620 2270 nM | M14 2560 nM | A498 7690 nM | SN12C 2390 nM | SK-MEL-28 2390 nM | TK-10 2080 nM | MOLT-4 2030 nM | HT-29 2110 nM | UACC-257 2950 nM | HCC 2998 4900 nM | SK-MEL-2 2660 nM | 786-0 2030 nM | ACHN 1870 nM | Malme-3M 2610 nM | HOP-92 2420 nM | RXF 393 2290 nM | NCI-H460 6530 nM
active: CCRF-CEM 851 nM
